Read-outs that look alike come from different tables or passages of the source.
Tested on: test plant species
Experiment: Post-emergent herbicidal activity test (greenhouse, foliar spray, visual growth reduction)
Format: in vivo
Conditions: post-emergence, 336 h, 140 g ai/ha
Procedure, shortened: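 Greenhouse plants at first–second true leaf stage sprayed overhead at 187 L/ha with compound in acetone/water/isopropanol/DMSO/crop oil/X-77 carrier; controls received solvent blank. Injury rated visually after 14 d on a 0–100% scale versus untreated and control plants, converted to growth reduction.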

[1] = ECHCG: barnyardgrass (Echinochloa crus-galli), 14 days after application, read-out: Visual Growth Reduction (%) 14 Days After Application, ECHCG
[2] = IPOHE: ivy-leaf morning glory (Ipomoea hederacea), 14 days after application, read-out: Visual Growth Reduction (%) 14 Days After Application, IPOHE
[3] = KCHSC: kochia (Bassia scoparia), 14 days after application, read-out: Visual Growth Reduction (%) 14 Days After Application, KCHSC
[4] = ORYSA: rice (Oryza sativa), 14 days after application, read-out: Visual Growth Reduction (%) 14 Days After Application, ORYSA
[5] = SETFA: giant foxtail (Setaria faberi), 14 days after application, read-out: Visual Growth Reduction (%) 14 Days After Application, SETFA
[6] = SORVU: grain sorghum (Sorghum vulgare), 14 days after application, read-out: Visual Growth Reduction (%) 14 Days After Application, SORVU
[7] = STEME: common chickweed (Stellaria media), 14 days after application, read-out: Visual Growth Reduction (%) 14 Days After Application, STEME
[8] = TRZAS: wheat, spring (Triticum aestivum), 14 days after application, read-out: Visual Growth Reduction (%) 14 Days After Application, TRZAS
[9] = blackgrass (Alopecurus myosuroides), 14 Days After Application, read-out: Visual Growth Reduction (%) ALOMY
[10] = canada thistle (Cirsium arvense), 14 Days After Application, read-out: Visual Growth Reduction (%) CIRAR
[11] = crabgrass (Digitaria sanguinalis), 14 Days After Application, read-out: Visual Growth Reduction (%) DIGSA
[12] = lambsquarters (Chenopodium album), 14 Days After Application, read-out: Visual Growth Reduction (%) CHEAL
[13] = redroot pigweed (Amaranthus retroflexus), 14 Days After Application, read-out: Visual Growth Reduction (%) AMARE
[14] = wild oat (Avena fatua), 14 Days After Application, read-out: Visual Growth Reduction (%) AVEFA
[15] = yellow nutsedge (Cyperus esculentus), 14 Days After Application, read-out: Visual Growth Reduction (%) CYPES
[16] = ALOMY: blackgrass (Alopecurus myosuroides), 14 days after application, read-out: Visual Growth Reduction (%) 14 Days After Application, ALOMY
[17] = AMARE: redroot pigweed (Amaranthus retroflexus), 14 days after application, read-out: Visual Growth Reduction (%) 14 Days After Application, AMARE
[18] = AVEFA: wild oat (Avena fatua), 14 days after application, read-out: Visual Growth Reduction (%) 14 Days After Application, AVEFA
[19] = CHEAL: lambsquarters (Chenopodium album), 14 days after application, read-out: Visual Growth Reduction (%) 14 Days After Application, CHEAL
[20] = CIRAR: canada thistle (Cirsium arvense), 14 days after application, read-out: Visual Growth Reduction (%) 14 Days After Application, CIRAR
[21] = CYPES: yellow nutsedge (Cyperus esculentus), 14 days after application, read-out: Visual Growth Reduction (%) 14 Days After Application, CYPES
[22] = DIGSA: crabgrass (Digitaria sanguinalis), 14 days after application, read-out: Visual Growth Reduction (%) 14 Days After Application, DIGSA

| Structure (SMILES) | pest or weed control at 140 g/ha [1] [%] | pest or weed control at 140 g/ha [2] [%] | pest or weed control at 140 g/ha [3] [%] | pest or weed control at 140 g/ha [4] [%] | pest or weed control at 140 g/ha [5] [%] | pest or weed control at 140 g/ha [6] [%] | pest or weed control at 140 g/ha [7] [%] | pest or weed control at 140 g/ha [8] [%] | pest or weed control at 140 g/ha [9] [%] | pest or weed control at 140 g/ha [10] [%] | pest or weed control at 140 g/ha [11] [%] | pest or weed control at 140 g/ha [12] [%] | pest or weed control at 140 g/ha [13] [%] | pest or weed control at 140 g/ha [14] [%] | pest or weed control at 140 g/ha [15] [%] | pest or weed control at 140 g/ha [16] [%] | pest or weed control at 140 g/ha [17] [%] | pest or weed control at 140 g/ha [18] [%] | pest or weed control at 140 g/ha [19] [%] | pest or weed control at 140 g/ha [20] [%] | also measured |
| --- | --- | --- | --- | --- | --- | --- | --- | --- | --- | --- | --- | --- | --- | --- | --- | --- | --- | --- | --- | --- | --- |
| O=C(O)c1nc(-c2cccc3c2OC(F)(F)O3)ccc1Cl [F255, 3-Chloro-6-(2,2-difluorobenzo[d][1,3]dioxol-4-yl)picolinic acid] | 0 to 29 | 0 to 29 | 0 to 29 | 0 to 29 | 0 to 29 | 0 to 29 | 0 to 29 | 0 to 29 | 0 to 29 | 0 to 29 | 0 to 29 | 0 to 29 | 0 to 29 | 0 to 29 | 0 to 29 | – | – | – | – | – | – |
| COC(=O)c1nc(-c2cc([N+](=O)[O-])c(C(F)(F)F)cc2Cl)c(F)cc1Cl [F322, Methyl 3-chloro-6-(2-chloro-5-nitro-4-(trifluoromethyl)phenyl)-5-fluoropicolinate] | 0 to 29 | 95 to 100 | 0 to 29 | 0 to 29 | 0 to 29 | 0 to 29 | 0 to 29 | 0 to 29 | 0 to 29 | 30 to 44 | 0 to 29 | 75 to 84 | 60 to 74 | 0 to 29 | 0 to 29 | – | – | – | – | – | – |
| COC(=O)c1nc(-c2ccc(C(F)(F)F)cc2Cl)c(F)c(Cl)c1Cl [F43, methyl 3,4-dichloro-6-(2-chloro-4-(trifluoromethyl)phenyl)-5-fluoropicolinate] | 0 to 29 | 0 to 29 | 0 to 29 | 0 to 29 | 0 to 29 | 45 to 59 | 0 to 29 | 0 to 29 | – | – | – | – | – | – | – | 0 to 29 | 0 to 29 | 0 to 29 | 0 to 29 | 0 to 29 | pest or weed control at 140 g/ha [21]: 0 to 29%; pest or weed control at 140 g/ha [22]: 0 to 29% |
| O=C(O)c1nc(-c2cc3c(cc2Cl)OCO3)c(F)cc1Cl [F196, 3-Chloro-6-(6-chlorobenzo[d][1,3]dioxol-5-yl)-5-fluoropicolinic acid] | 0 to 29 | 95 to 100 | 60 to 74 | 0 to 29 | 0 to 29 | 45 to 59 | 0 to 29 | 0 to 29 | – | – | – | – | – | – | – | 0 to 29 | 75 to 84 | 0 to 29 | 85 to 94 | 0 to 29 | pest or weed control at 140 g/ha [21]: 0 to 29%; pest or weed control at 140 g/ha [22]: 0 to 29% |
| COC(=O)c1nc(-c2c(Cl)cc(C(F)(F)F)cc2SC)ccc1Cl [F122, methyl 3-chloro-6-(2-chloro-6-(methylthio)-4-(trifluoromethyl)phenyl)picolinate] | 45 to 59 | 95 to 100 | 75 to 84 | 0 to 29 | 85 to 94 | 75 to 84 | 0 to 29 | 0 to 29 | – | – | – | – | – | – | – | 0 to 29 | 95 to 100 | 0 to 29 | 60 to 74 | 60 to 74 | pest or weed control at 140 g/ha [21]: 0 to 29%; pest or weed control at 140 g/ha [22]: 30 to 44% |
| COC(=O)c1nc(-c2ccc3ccccc3c2)c(F)cc1Cl [F340, Methyl 3-chloro-5-fluoro-6-(naphthalen-2-yl)picolinate] | 0 to 29 | 0 to 29 | 0 to 29 | 0 to 29 | 0 to 29 | 0 to 29 | 0 to 29 | 0 to 29 | 0 to 29 | – | 0 to 29 | 0 to 29 | 0 to 29 | 0 to 29 | 0 to 29 | – | – | – | – | – | – |
| O=C(O)c1nc(-c2cc(F)c3c(c2)OC(F)(F)O3)ccc1Cl [F368, 3-Chloro-6-(2,2,7-trifluorobenzo[d][1,3]dioxol-5-yl)picolinic acid] | 0 to 29 | 95 to 100 | 0 to 29 | 0 to 29 | 45 to 59 | 75 to 84 | 0 to 29 | 0 to 29 | 0 to 29 | 0 to 29 | 75 to 84 | 0 to 29 | 0 to 29 | 0 to 29 | 0 to 29 | – | – | – | – | – | – |
| O=C(O)c1nc(-c2ccc(C(F)(F)F)nc2)ccc1Cl [F95, 5-Chloro-6′-(trifluoromethyl)-[2,3′-bipyridine]-6-carboxylic acid] | 0 to 29 | 45 to 59 | 0 to 29 | 0 to 29 | 0 to 29 | 0 to 29 | 0 to 29 | 0 to 29 | – | – | – | – | – | – | – | 0 to 29 | 0 to 29 | 0 to 29 | 0 to 29 | 0 to 29 | pest or weed control at 140 g/ha [21]: 0 to 29%; pest or weed control at 140 g/ha [22]: 0 to 29% |
| COC(=O)c1nc(-c2cc(N)c(C(F)(F)F)cc2Cl)ccc1Cl [F211, methyl 6-(5-amino-2-chloro-4-(trifluoromethyl)phenyl)-3-chloropicolinate] | 60 to 74 | 95 to 100 | 75 to 84 | 0 to 29 | 45 to 59 | 60 to 74 | 0 to 29 | 0 to 29 | 0 to 29 | 85 to 94 | 30 to 44 | 95 to 100 | 85 to 94 | 0 to 29 | 0 to 29 | – | – | – | – | – | – |
| COC(=O)c1nc(-c2ccc(C(F)F)cc2)c(F)cc1Cl [F209, Methyl 3-chloro-6-(4-(difluoromethyl)phenyl)-5-fluoropicolinate] | 0 to 29 | 85 to 94 | 0 to 29 | 0 to 29 | 0 to 29 | 0 to 29 | 0 to 29 | 0 to 29 | 0 to 29 | 60 to 74 | 0 to 29 | 85 to 94 | 45 to 59 | 0 to 29 | 0 to 29 | – | – | – | – | – | – |

Reference: patent US20230017045A1, “PYRIDINE AND PYRIMIDINE CARBOXYLATE HERBICIDES AND METHODS OF USE THEREOF” (Dow AgroSciences LLC, priority 2017, published 2023)
